Source: the NIST ThermoML archive (doi:10.1016/j.jct.2005.03.019)

Assay: xn = mol fraction of the nth substance listed
Details: 101 kPa, Liquid, Vibrating tube method

CC1COC(=O)O1 (centres undefined) [4-methyl-1,3-dioxolan-2-one] + CCc1ccccc1
Details | mass density [kg/m3]
293.15 K, x2 = 0 | 1200.3
293.15 K, x2 = 0.0592 | 1173.5
293.15 K, x2 = 0.1139 | 1149.9
293.15 K, x2 = 0.1749 | 1124.6
293.15 K, x2 = 0.2471 | 1096.1
293.15 K, x2 = 0.3274 | 1066.1
293.15 K, x2 = 0.3856 | 1045.5
293.15 K, x2 = 0.4527 | 1022.7
293.15 K, x2 = 0.5049 | 1005.6
293.15 K, x2 = 0.5672 | 986.1
293.15 K, x2 = 0.6368 | 965.1
293.15 K, x2 = 0.6978 | 947.4
293.15 K, x2 = 0.7529 | 932
293.15 K, x2 = 0.8149 | 915.2
293.15 K, x2 = 0.8742 | 899.6
293.15 K, x2 = 0.9368 | 883.5
303.15 K, x2 = 0 | 1180.6
303.15 K, x2 = 0.0489 | 1159.1
303.15 K, x2 = 0.1278 | 1126.2
303.15 K, x2 = 0.1974 | 1098.6
303.15 K, x2 = 0.2484 | 1079.4
303.15 K, x2 = 0.3149 | 1055.2
303.15 K, x2 = 0.3759 | 1034.1
303.15 K, x2 = 0.4349 | 1014.5
303.15 K, x2 = 0.4876 | 997.7
303.15 K, x2 = 0.5498 | 978.5
303.15 K, x2 = 0.5922 | 965.9
303.15 K, x2 = 0.659 | 946.7
303.15 K, x2 = 0.7249 | 928.4
303.15 K, x2 = 0.7941 | 910
303.15 K, x2 = 0.8578 | 893.5
303.15 K, x2 = 0.9247 | 876.8
313.15 K, x2 = 0 | 1161.3
313.15 K, x2 = 0.0662 | 1133.7
313.15 K, x2 = 0.1258 | 1110
313.15 K, x2 = 0.1835 | 1088
313.15 K, x2 = 0.2458 | 1065.3
313.15 K, x2 = 0.3342 | 1034.7
313.15 K, x2 = 0.3958 | 1014.5
313.15 K, x2 = 0.4592 | 994.6
313.15 K, x2 = 0.5135 | 978.2
313.15 K, x2 = 0.5629 | 963.7
313.15 K, x2 = 0.6248 | 946.2
313.15 K, x2 = 0.6724 | 933.2
313.15 K, x2 = 0.7383 | 915.7
313.15 K, x2 = 0.7873 | 903.2
313.15 K, x2 = 0.8534 | 886.7
313.15 K, x2 = 0.9378 | 866.4
323.15 K, x2 = 0 | 1142.4
323.15 K, x2 = 0.0635 | 1117.4
323.15 K, x2 = 0.1139 | 1098.3
323.15 K, x2 = 0.1729 | 1076.8
323.15 K, x2 = 0.2384 | 1054
323.15 K, x2 = 0.3248 | 1025.4
323.15 K, x2 = 0.3859 | 1006.2
323.15 K, x2 = 0.4523 | 986.2
323.15 K, x2 = 0.5048 | 971
323.15 K, x2 = 0.5733 | 951.9
323.15 K, x2 = 0.6387 | 934.4
323.15 K, x2 = 0.7038 | 917.6
323.15 K, x2 = 0.7587 | 903.8
323.15 K, x2 = 0.8137 | 890.5
323.15 K, x2 = 0.8698 | 877.2
323.15 K, x2 = 0.9247 | 864.5
333.15 K, x2 = 0 | 1124
333.15 K, x2 = 0.0587 | 1102.4
333.15 K, x2 = 0.1328 | 1076.2
333.15 K, x2 = 0.1849 | 1058.6
333.15 K, x2 = 0.2489 | 1037.9
333.15 K, x2 = 0.3186 | 1016.2
333.15 K, x2 = 0.3767 | 998.9
333.15 K, x2 = 0.435 | 982.2
333.15 K, x2 = 0.4957 | 965.5
333.15 K, x2 = 0.5549 | 949.7
333.15 K, x2 = 0.6247 | 931.8
333.15 K, x2 = 0.6978 | 913.8
333.15 K, x2 = 0.7629 | 898.4
333.15 K, x2 = 0.8247 | 884.2
333.15 K, x2 = 0.8624 | 875.7
333.15 K, x2 = 0.9358 | 859.5
343.15 K, x2 = 0 | 1106
343.15 K, x2 = 0.0524 | 1088.2
343.15 K, x2 = 0.1125 | 1068.5
343.15 K, x2 = 0.1828 | 1046.3
343.15 K, x2 = 0.2398 | 1029.1
343.15 K, x2 = 0.3049 | 1010.2
343.15 K, x2 = 0.3673 | 992.8
343.15 K, x2 = 0.4348 | 974.7
343.15 K, x2 = 0.4817 | 962.6
343.15 K, x2 = 0.5428 | 947.3
343.15 K, x2 = 0.6048 | 932.3
343.15 K, x2 = 0.6721 | 916.5
343.15 K, x2 = 0.7498 | 899
343.15 K, x2 = 0.8247 | 882.7
343.15 K, x2 = 0.8827 | 870.5
343.15 K, x2 = 0.9478 | 857
353.15 K, x2 = 0 | 1088.4
353.15 K, x2 = 0.0629 | 1069.2
353.15 K, x2 = 0.1272 | 1050.2
353.15 K, x2 = 0.1947 | 1031
353.15 K, x2 = 0.2598 | 1013.3
353.15 K, x2 = 0.3138 | 999
353.15 K, x2 = 0.3945 | 978.6
353.15 K, x2 = 0.4629 | 962
353.15 K, x2 = 0.5148 | 949.8
353.15 K, x2 = 0.5749 | 936.1
353.15 K, x2 = 0.6345 | 923
353.15 K, x2 = 0.7039 | 908.2
353.15 K, x2 = 0.7635 | 895.8
353.15 K, x2 = 0.8137 | 885.7
353.15 K, x2 = 0.8642 | 875.7
353.15 K, x2 = 0.9248 | 863.9

CC1COC(=O)O1 (centres undefined) [4-methyl-1,3-dioxolan-2-one] + Cc1ccccc1
Details | mass density [kg/m3]
293.15 K, x2 = 0 | 1200.3
293.15 K, x2 = 0.0578 | 1177.7
293.15 K, x2 = 0.1279 | 1151
293.15 K, x2 = 0.1735 | 1133.9
293.15 K, x2 = 0.2387 | 1110
293.15 K, x2 = 0.3248 | 1079.4
293.15 K, x2 = 0.3891 | 1057.1
293.15 K, x2 = 0.4398 | 1039.9
293.15 K, x2 = 0.5179 | 1014
293.15 K, x2 = 0.5621 | 999.7
293.15 K, x2 = 0.6381 | 975.4
293.15 K, x2 = 0.7139 | 951.8
293.15 K, x2 = 0.7639 | 936.5
293.15 K, x2 = 0.8247 | 918.2
293.15 K, x2 = 0.8739 | 903.6
293.15 K, x2 = 0.9376 | 884.9
303.15 K, x2 = 0 | 1180.6
303.15 K, x2 = 0.0516 | 1161
303.15 K, x2 = 0.1211 | 1135.3
303.15 K, x2 = 0.1782 | 1114.7
303.15 K, x2 = 0.2298 | 1096.4
303.15 K, x2 = 0.2971 | 1073
303.15 K, x2 = 0.3565 | 1052.9
303.15 K, x2 = 0.4134 | 1034
303.15 K, x2 = 0.4681 | 1016.2
303.15 K, x2 = 0.5371 | 994.2
303.15 K, x2 = 0.6021 | 973.9
303.15 K, x2 = 0.6629 | 955.4
303.15 K, x2 = 0.7232 | 937.2
303.15 K, x2 = 0.7832 | 919.5
303.15 K, x2 = 0.8537 | 899.1
303.15 K, x2 = 0.9245 | 878.8
313.15 K, x2 = 0 | 1161.3
313.15 K, x2 = 0.0467 | 1144.2
313.15 K, x2 = 0.1274 | 1115.2
313.15 K, x2 = 0.1832 | 1095.7
313.15 K, x2 = 0.2572 | 1070.4
313.15 K, x2 = 0.3291 | 1046.5
313.15 K, x2 = 0.3938 | 1025.5
313.15 K, x2 = 0.4531 | 1006.7
313.15 K, x2 = 0.5291 | 983.2
313.15 K, x2 = 0.5919 | 964.2
313.15 K, x2 = 0.6472 | 947.7
313.15 K, x2 = 0.6938 | 934.1
313.15 K, x2 = 0.7524 | 917.2
313.15 K, x2 = 0.8138 | 899.7
313.15 K, x2 = 0.8623 | 886.1
313.15 K, x2 = 0.9427 | 863.9
323.15 K, x2 = 0 | 1142.4
323.15 K, x2 = 0.0592 | 1121.4
323.15 K, x2 = 0.114 | 1102.4
323.15 K, x2 = 0.1734 | 1082.1
323.15 K, x2 = 0.2378 | 1060.7
323.15 K, x2 = 0.3139 | 1036
323.15 K, x2 = 0.3681 | 1018.8
323.15 K, x2 = 0.4244 | 1001.4
323.15 K, x2 = 0.4711 | 987.1
323.15 K, x2 = 0.5137 | 974.3
323.15 K, x2 = 0.5828 | 954
323.15 K, x2 = 0.6528 | 933.8
323.15 K, x2 = 0.725 | 913.4
323.15 K, x2 = 0.7941 | 894.2
323.15 K, x2 = 0.8529 | 878.2
323.15 K, x2 = 0.9172 | 860.9
333.15 K, x2 = 0 | 1124
333.15 K, x2 = 0.0545 | 1105.2
333.15 K, x2 = 0.1287 | 1080.2
333.15 K, x2 = 0.1831 | 1062.3
333.15 K, x2 = 0.2417 | 1043.4
333.15 K, x2 = 0.3274 | 1016.5
333.15 K, x2 = 0.3818 | 999.9
333.15 K, x2 = 0.4383 | 983
333.15 K, x2 = 0.4819 | 970.1
333.15 K, x2 = 0.5381 | 953.9
333.15 K, x2 = 0.5821 | 941.3
333.15 K, x2 = 0.6421 | 924.5
333.15 K, x2 = 0.7138 | 904.8
333.15 K, x2 = 0.7832 | 886.1
333.15 K, x2 = 0.8527 | 867.7
333.15 K, x2 = 0.9323 | 846.9
343.15 K, x2 = 0 | 1106
343.15 K, x2 = 0.0613 | 1085.5
343.15 K, x2 = 0.1248 | 1064.7
343.15 K, x2 = 0.1822 | 1046.3
343.15 K, x2 = 0.2489 | 1025.5
343.15 K, x2 = 0.3011 | 1009.5
343.15 K, x2 = 0.3719 | 988.4
343.15 K, x2 = 0.458 | 963.3
343.15 K, x2 = 0.5043 | 950.2
343.15 K, x2 = 0.5729 | 931.1
343.15 K, x2 = 0.6429 | 912
343.15 K, x2 = 0.7041 | 895.7
343.15 K, x2 = 0.7634 | 880.1
343.15 K, x2 = 0.8241 | 864.4
343.15 K, x2 = 0.8721 | 852.2
343.15 K, x2 = 0.9347 | 836.3
353.15 K, x2 = 0 | 1088.4
353.15 K, x2 = 0.0524 | 1071.3
353.15 K, x2 = 0.1139 | 1051.6
353.15 K, x2 = 0.1942 | 1026.6
353.15 K, x2 = 0.2589 | 1007
353.15 K, x2 = 0.3238 | 987.8
353.15 K, x2 = 0.4035 | 964.9
353.15 K, x2 = 0.4598 | 949.1
353.15 K, x2 = 0.5243 | 931.4
353.15 K, x2 = 0.5825 | 915.7
353.15 K, x2 = 0.6359 | 901.6
353.15 K, x2 = 0.693 | 886.8
353.15 K, x2 = 0.7749 | 865.9
353.15 K, x2 = 0.8371 | 850.3
353.15 K, x2 = 0.8689 | 842.4
353.15 K, x2 = 0.9432 | 824.2
